Data as given in patent publication US9688666B2, “Lamivudine salts” (Tobira Therapeutics, Inc., priority 2013, dated 2017).

Legend:
Assay type in all cases: physicochemical
[1] = Gravimetric vapor sorption (GVS), hygroscopicity; details: 25 degrees C, relative humidity 0% to 90% in 10% RH increments
Source text: A crystalline form can be characterized by gravimetric vapor sorption (GVS). A GVS plot can be a graph of weight gain or loss against relative humidity. The total weight gain or loss is often reported as a weight percent (wt %), the value of which allows for and includes an appropriate margin of error that can be represented by the symbol “±.” For example, a weight change of about 2.0±0.5% can refer to a range from about 2+0.5%, that is, 2.5%, to about […], that is, about 1.5%. Depending on the sample preparation technique, the calibration technique applied to the instrument, human operation variation, the nature of the particular instrument being used, and other factors known to the art, the appropriate margin of error for a weight gain or loss can be about ±2%, about ±1%, about ±0.75%, about ±0.5%, about ±0.25%, or less. Among other things, GVS can be useful for determining whether a crystalline form changes upon exposure to humidity.
Gravimetric vapor sorption plots were obtained on an ‘Iga Sorp’ vapor sorption balance manufactured by Hidden Analytical Instruments, which was calibrated according to manufacturer recommendations. Samples were dried by maintaining a 0% humidity until no additional weight change was measured. […] After equilibration, the weight change was measured, and the RH was then increased by 10% following the above-described equilibration procedure. […]

[2] = Competitive slurry of Form I/Form II mixture, product examined by XRPD; details: 20 mg Form I + 20 mg Form II suspended in 400 μL acetone or 400 μL isopropanol, shaken at ambient temperature for 72 hours; same result in both cases
Method: A first mixture of 20 mg lamivudine hydrochloride polymorph Form I and 20 mg lamivudine hydrochloride polymorph Form II was suspended in 400 μL of acetone, and a second mixture of 20 mg lamivudine hydrochloride polymorph Form I and 20 mg lamivudine hydrochloride polymorph Form II was suspended in 400 μL isopropanol. Both mixtures were shaken at ambient temperature for 72 hours, after which the resulting product was examined by XRPD. In both cases, the resulting product an XRPD diffraction pattern substantially similar to that of FIG. 6.

[3] = Storage stability at ambient temperature and humidity, XRPD before and after; details: stored in a cupboard at ambient temperature and humidity for 16 weeks
Method: A sample of lamivudine hydrochloride polymorph Form II was analyzed by XRPD, and then stored in a cupboard at ambient temperature and humidity for 16 weeks, after which the sample was re-analyzed by XRPD. FIG. 32 compares the XRPD pattern obtained before storage (top pattern) and after 16 weeks of storage (middle pattern) with the XRPD pattern of lamivudine hydrochloride polymorph Form I obtained by the method of Example 1 (bottom pattern).

Compound | GVS reversible weight gain [1] [%] | relative thermodynamic stability of polymorphs (form of product by XRPD) [2] | solid form stability on storage (XRPD) [3]
Cl.Nc1ccn([C@@H]2CS[C@H](CO)O2)c(=O)n1 [listing 1 of 2 here] | ≤ 1 | – | –
Cl.Nc1ccn([C@@H]2CS[C@H](CO)O2)c(=O)n1 [listing 2 of 2 here] | – | less thermodynamically stable than, and transforming into, lamivudine hydrochloride polymorph Form I | spontaneously converting to lamivudine hydrochloride polymorph Form I after 16 weeks of storage
